From US11865126B2, “Method for treating anxiety disorders, headache disorders, and eating disorders with psilocybin” (priority 2019, dated 2024) come the findings set out here.

For the assay, the system named is healthy subjects. The assay is described as follows: Social Value Orientation (SVO). The assay is classed as in vivo, human. From the text:
In some embodiments, the Social Value Orientation (SVO) test is utilized to evaluate the safety and/or efficacy of psilocybin. The SVO Slider Measure has 6 primary items with 9 secondary (and optional) items. All of the items have the same general form. Each item is a resource allocation choice over a well-defined continuum of joint payoffs.
The following list of outcome measures are non-exhaustive. • a. The short-term change from Baseline (Day −1 [Visit 2]) to Day 7 (Visit 5) in cognitive measures of attention, spatial and working memory and executive function was measured by a composite score of the CANTAB Panel (Spatial Working Memory [SWM], Rapid Visual Information Processing [RVP], Paired Associates Learning [PAL]). • b. The short-term change from Baseline (Day −1 [Visit 2]) to Day 7 (Visit 5) in Social Cognition Panel scales (Pictorial Empathy Test [PET], Reading the Mind in the Eyes Test [RMET], Toronto Empathy Questionnaire [TEQ], Social Value Orientation [SVO], Scale of Social Responsibility [SSR]). • c. The change from Baseline (Day −1 [Visit 2]) to Day 28 (Visit 6) in cognitive measures of attention, spatial and working memory and executive function as measured by a composite score of the CANTAB Panel (SWM, RVP, PAL). • d. The long-term change from Baseline (Day −1 [Visit 2]) to Day 84 (Visit 7) in Social Cognition Panel scales (PET, RMET, TEQ, SVO, SSR). • e. Dose-related differences between cognitive effects of psilocybin at Baseline (Day −1 [Visit 2]), Day 7 (Visit 5) and Day 28 (Visit 6), as measured by a composite score of the CANTAB Panel (SWM, RVP, PAL). • f. Dose-related differences between psychological effects of psilocybin at Baseline (Day −1 [Visit 2]), Day 7 (Visit 5) and Day 84 (Visit 7), as measured by Social Cognition Panel scales (PET, RMET, TEQ, SVO, SSR). • g. Differences in cognitive effects of psilocybin between psilocybin-naïve and experienced subjects at Baseline (Day −1 [Visit 2]), Day 7 (Visit 5) and Day 28 (Visit 6), as measured by a composite score of the CANTAB Panel (SWM, RVP, PAL). • h. Differences in Positive and Negative Affect Schedule (PANAS) after study drug administration on Day 0 (Visit 3). • i. Differences between psilocybin and placebo in the Emotion Recognition Test (ERT), Intra-Extra Dimensional Set Shift (IED), One Touch Stockings (OTS), Verbal Fluency and Digit Span Forward at Day 7 (Visit 5). • j. A composite score of the CANTAB Panel, including the following tests: • i. Spatial Working Memory (SWM) (performed at Visit 2, Visit 5, and Visit 6). • ii. Rapid Visual Information Processing (RVP) (performed at Visit 2, Visit 5, and Visit 6). • iii. Paired Associates Learning (PAL) (performed at Visit 2, Visit 5, and Visit 6). • k. Cognitive Flexibility Panel • i. Emotion Recognition Task (ERT) (performed at Visit 5). • ii. Intra-Extra Dimensional Set Shift (IED) (performed at Visit 5). • iii. One Touch Stockings (OTS) (performed at Visit 5). • iv. Verbal Fluency (performed at Visit 5). • v. Digit Span Forward (performed at Visit 5). • l. Five Dimension Altered States of Consciousness questionnaire (5D-ASC) (performed at Visit 3). • m. PANAS (performed at Visit 2 and Visit 3). • n. NEO-Five Factor Inventory (NEO-FFI) (performed at Visit 2, Visit 5, and Visit 7). • o. Symptom Checklist-90 item (SCL-90) (performed at Visit 2, Visit 5, and Visit 7). • p. Life Changes Inventory (LCI): The LCI measures changes in attitudes and values after near-death experiences often used to evaluate personal transformation following spiritually oriented experiences and practices. (performed at Visit 5 and Visit 7). • q. Social Cognition Panel scales • i. Pictorial Empathy Test (PET) (performed at Visit 2, Visit 5, and Visit 7). • ii. Reading the Mind in the Eyes Test (RMET) (performed at Visit 2, Visit 5, and Visit 7). • iii. Social Value Orientation (SVO) (performed at Visit 2, Visit 5, and Visit 7). • iv. Toronto Empathy Questionnaire (TEQ) (performed at Visit 2, Visit 5, and Visit 7). • v. […]

As for `CN(C)CCc1c[nH]c2cccc(OP(=O)(O)O)c12` [psilocybin], for the setting “Day 7, MMRM”, the “SVO angle change from baseline, LS mean difference Psilocybin 10 mg - Placebo” value is 3.4; the “SVO angle change from baseline, LS mean difference Psilocybin 25 mg - Placebo” value turned out to be 2.1; the “SVO angle change from baseline, LS mean difference Psilocybin 25 mg-10 mg” value is recorded as −1.3; the “SVO type change from baseline, LS mean difference Psilocybin 10 mg - Placebo” value came to 0.1. Besides, where the note is “Day 7, MMRM”, the “SVO type change from baseline, LS mean difference Psilocybin 25 mg - Placebo” value worked out at 0.1 and the “SVO type change from baseline, LS mean difference Psilocybin 25 mg-10 mg” value is given as −0.0. Under “Day 84, MMRM”, the “SVO angle change from baseline, LS mean difference Psilocybin 10 mg - Placebo” value was determined as 3.4; the “SVO angle change from baseline, LS mean difference Psilocybin 25 mg - Placebo” value stood at 2.4; the “SVO angle change from baseline, LS mean difference Psilocybin 25 mg-10 mg” value is on record as −1.0; the “SVO type change from baseline, LS mean difference Psilocybin 10 mg - Placebo” value is listed as 0.1. For the same compound, under “Day 84, MMRM”, the “SVO type change from baseline, LS mean difference Psilocybin 25 mg - Placebo” value stood at 0.1 and the “SVO type change from baseline, LS mean difference Psilocybin 25 mg-10 mg” value is given as −0.0.
